Data on 55 compounds can be found in BindingDB's records for doi:10.7270/Q2PR7TCX (The Scripps Research Institute Molecular Screening Center, 2007).

This test has as its target Steroidogenic factor 1 (Homo sapiens, UniProt Q13285). Description: SF-1 inhibitors in Gal4 reporter counter-screen, dose response, counter-screen for RORA inhibitor project, cell-based, CHO-K1, Gal4-SF-1 LBD, luciferase luminescence (AID 611). A general note: A counterscreen serves to expose hits that act by an unwanted route or on another target.
[1] abbreviates: inactive by the depositor's call.

Structures can show the parent of a compound that is named as a salt. Where only a bound is given, the exact number is not on record here.

One may read the IC50 as the point on the concentration scale where inhibition reaches its midpoint. The low end stands for inhibition by little substance, the high end for a need for much substance.

Sequence of Steroidogenic factor 1 (Q13285 whole entry, the tested form may be a part): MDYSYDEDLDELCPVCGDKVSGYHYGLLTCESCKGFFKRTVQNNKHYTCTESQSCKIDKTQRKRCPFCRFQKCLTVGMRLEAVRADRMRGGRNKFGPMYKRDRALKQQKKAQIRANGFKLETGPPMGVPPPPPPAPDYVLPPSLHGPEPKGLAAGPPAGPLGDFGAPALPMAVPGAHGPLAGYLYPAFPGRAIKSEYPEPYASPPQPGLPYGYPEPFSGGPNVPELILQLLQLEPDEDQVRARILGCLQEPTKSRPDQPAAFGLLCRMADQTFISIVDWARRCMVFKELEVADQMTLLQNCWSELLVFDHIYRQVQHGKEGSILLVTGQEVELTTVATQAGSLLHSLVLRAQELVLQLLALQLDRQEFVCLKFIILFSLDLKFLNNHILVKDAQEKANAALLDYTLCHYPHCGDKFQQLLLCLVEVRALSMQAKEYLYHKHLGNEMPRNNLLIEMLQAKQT

`CN1CCN(C(=O)COc2ccc(-c3nc4ccccc4s3)cc2)CC1` [2-[4-(1,3-benzothiazol-2-yl)phenoxy]-1-(4-methyl-1-piperazinyl)ethanone] returned an IC50 of 5.28 µM.

With `Nc1ccc(-c2nc3c(Cl)cc(N)cc3[nH]2)cc1` [MLS000034140], the IC50 amounted to 5.43 µM. This IC50 and that of the compound before are within 1.5-fold of each other.

`CCCCCOC(=O)c1[nH]c2c(c1C)C(=O)CC(c1ccco1)C2` (stereo not given) [pentyl 6-(furan-2-yl)-3-methyl-4-oxidanylidene-1,5,6,7-tetrahydroindole-2-carboxylate] returned an IC50 of 1.87 µM.

`O=S(=O)(c1ccccc1)N1CCN(c2cc(-c3ccccc3)nc3ncnn23)CC1` [5-phenyl-7-[4-(phenylsulfonyl)piperazin-1-yl]-[1,2,4]triazolo[1,5-a]pyrimidine] had an IC50 of 8.96 µM.

`O=C(CSc1nnc(Cn2nnc3ccccc32)o1)N(Cc1ccc(F)cc1)c1ccccc1` [2-(5-Benzotriazol-1-ylmethyl-[1,3,4]oxadiazol-2-ylsulfanyl)-N-(4-fluoro-benzyl)-N-phenyl-acetamide] displayed an IC50 under setting [1] of 11 µM.

Under setting [1], `COc1cc2c(cc1OC)C(C)N(C(=O)c1cc3ccccc3o1)CC2` (stereo not given) [1-benzofuran-2-yl-(6,7-dimethoxy-1-methyl-3,4-dihydro-1H-isoquinolin-2-yl)methanone] gave an IC50 of 19 µM. Against the preceding compound, the IC50 is about 1.7-fold higher.

`Cc1ccc2nc(-c3ccccc3)cn2c1` [6-methyl-2-phenyl-imidazo[1,2-a]pyridine;hydrobromide] gave an IC50 of 1.93 µM.

Consider `c1ccc(-c2noc(-c3ccc4ccccc4c3)n2)nc1` [2-[5-(2-naphthyl)-1,2,4-oxadiazol-3-yl]pyridine], for which the IC50 was found to be 0.867 µM. Compared with the last compound, the IC50 is about 2.2-fold lower.

Compound `COc1cc(OC)cc(-c2cc3nc(C)c(CCC(=O)O)c(C)n3n2)c1` [3-[2-(3,5-dimethoxyphenyl)-5,7-dimethyl-6-pyrazolo[1,5-a]pyrimidinyl]propanoic acid] displayed an IC50 of 0.74 µM.

`COc1cc2nc(CN3CC=C(c4ccccc4)CC3)nc(O)c2cc1OC` [MLS000053305] displayed an IC50 of 2.36 µM.

In the case of `Fc1ccc2[nH]c3c(N4CCSCC4)ncnc3c2c1` [MLS000078401], the midpoint of inhibition under setting [1], the IC50, lay at 10.4 µM.

`COc1ccc2c(c1)[nH]c1c(N3CCN(Cc4ccc5c(c4)OCO5)CC3)ncnc12` [4-[4-(1,3-benzodioxol-5-ylmethyl)piperazin-1-yl]-7-methoxy-5H-pyrimido[5,4-b]indole] registered an IC50 of 7.25 µM.

`O=C(Nc1nc(-c2ccccn2)cs1)c1ccc(Cl)s1` [5-chloranyl-N-(4-pyridin-2-yl-1,3-thiazol-2-yl)thiophene-2-carboxamide]: the midpoint of inhibition, the IC50, lay at 4 µM.

`[H][C@@]12C[N@@](CCc3c([nH]c4ccccc34)[C@@](C(=O)OC)(c3cc4c(cc3OC)N(C=O)[C@]3([H])[C@]45CC[N@@]4CC=C[C@@](CC)([C@@H](OC(C)=O)[C@]3(O)C(=O)OC)[C@]45[H])C1)C[C@](O)(CC)C2` displayed an IC50 of 2.11 µM.

For the compound `COc1ccc(C(=O)Nc2ccc(C)cn2)c(OC)c1` [2,4-dimethoxy-N-(5-methylpyridin-2-yl)benzamide], the half-inhibitory concentration (IC50) was above 1.22 µM.

`CCc1ccc(-c2nnn(CCC(=O)OC)n2)cc1` showed an IC50 of 6.34 µM.

`COc1ccc(OC)c(Nc2nc(-c3ccc(O)c(O)c3)cs2)c1` [4-[2-(2,5-Dimethoxy-phenylamino)-thiazol-4-yl]-benzene-1,2-diol] registered an IC50 of 7.17 µM. The IC50 values of the last two compounds are within 1.5-fold of each other.

Compound `O=c1cc(N2CCN(c3cccc(Cl)c3)CC2)[nH]c(=O)n1C1CCCCC1` [MLS000094380] had a half-maximal inhibitory concentration (IC50) of 0.44 µM.

In the case of `Cc1cccc(-n2ncc3c(N4CCOCC4)ncnc32)c1` [4-[1-(3-methylphenyl)-4-pyrazolo[3,4-d]pyrimidinyl]morpholine], the IC50 is above 3.67 µM.

Compound `O=C(c1ccc(Cl)cc1)N1CCCCC(Sc2nnc(-c3ccc4c(c3)OCO4)o2)C1=O` (stereo not given) [3-[[5-(1,3-benzodioxol-5-yl)-1,3,4-oxadiazol-2-yl]sulfanyl]-1-(4-chlorobenzoyl)azepan-2-one] came in with an IC50 of 1.46 µM.

For the compound `CC1(C)CC(=O)C2=C(C1)Oc1nc3ccccc3cc1C2C(C#N)C#N` (stereo not given) [2-(1-keto-3,3-dimethyl-4,12-dihydro-2H-chromeno[2,3-b]quinolin-12-yl)malononitrile], under setting [1], the IC50 stood at 12.2 µM.

`Cc1ccc(S(=O)(=O)Nc2cccc3ncccc23)s1` [5-methyl-N-quinolin-5-ylthiophene-2-sulfonamide] yielded an IC50 of 5.33 µM.

`CCOc1ccc(-c2cc(CCCC(=O)NCCCOC)no2)cc1` [4-[5-(4-ethoxyphenyl)-1,2-oxazol-3-yl]-N-(3-methoxypropyl)butanamide]: 2.64 µM corresponded to half-maximal inhibition (IC50).

`Cc1cc(C=c2sc3nc4ccccc4n3c2=O)c(C)n1-c1ccccn1` [2-[(2,5-dimethyl-1-pyridin-2-yl-pyrrol-3-yl)methylidene]-[1,3]thiazolo[3,2-a]benzimidazol-1-one] yielded an IC50 above 0.00503 µM.

For the compound `CC1CCc2nc(NC(=O)c3ccco3)sc2C1` (stereo not given) [MLS000063711], the midpoint of inhibition, the IC50, lay at 3.29 µM.

As to `COc1ccc(CNc2cc(C)nc3ncnn23)c(OC)c1` [(2,4-Dimethoxy-benzyl)-(5-methyl-[1,2,4]triazolo[1,5-a]pyrimidin-7-yl)-amine], half-maximal inhibition under setting [1] (IC50) was put at 23.4 µM. This lies in the double-digit micromolar range.

`O=C(Nc1nc2cc3c(cc2s1)OCO3)C1=COCCO1` [MLS000103798]: the midpoint of inhibition, the IC50, lay at 4.16 µM.

Compound `COc1ccc(OC)c(NC(=O)CSc2nnnn2-c2ccc3c(c2)OCO3)c1` [2-(1-Benzo[1,3]dioxol-5-yl-1H-tetrazol-5-ylsulfanyl)-N-(2,5-dimethoxy-phenyl)-acetamide] displayed an IC50 of 2.69 µM. Compared with the last compound, the IC50 is about 1.5-fold lower.

As to `COC(=O)/C(=C1/Oc2cc(C)oc(=O)c2S1)C(F)(F)F` [methyl (2E)-3,3,3-tris(fluoranyl)-2-(6-methyl-4-oxidanylidene-[1,3]oxathiolo[4,5-c]pyran-2-ylidene)propanoate], the IC50 was found to be 4.32 µM.

The compound `Cc1cc(-n2c(C)cc(C(=O)CSc3ncnc4ccccc34)c2C)no1` [1-[2,5-dimethyl-1-(5-methyl-1,2-oxazol-3-yl)pyrrol-3-yl]-2-quinazolin-4-ylsulfanyl-ethanone] displayed an IC50 of 6.03 µM.

Take `Cc1oc2nc(SCC(=O)NCc3cccnc3)nc(N)c2c1C` [2-(4-amino-5,6-dimethylfuro[2,3-d]pyrimidin-2-yl)sulfanyl-N-(pyridin-3-ylmethyl)acetamide]: the IC50 was above 99 µM.

On to `N#C/C(=C/c1ccc(N2CCCCCC2)o1)c1ccc(F)cc1` [MLS000051438], for which the IC50 under setting [1] is 18.5 µM. In other words, the double-digit micromolar range.

Turning to `Cc1ccc(N=C2Nc3ccccc3CS2)cc1`, the IC50 is above 11 µM.

`Cc1nc2sccn2c1-c1csc(NCc2ccccc2)n1` [4-(6-methyl-5-imidazo[2,1-b]thiazolyl)-N-(phenylmethyl)-2-thiazolamine] gave an IC50 under setting [1] of 11.1 µM.

Take `CCCCNc1cc(C)nc(NCc2ccccc2)n1` [2-N-benzyl-4-N-butyl-6-methylpyrimidine-2,4-diamine]: the half-maximal inhibitory concentration (IC50) is 9.37 µM. This counts as single-digit micromolar.

Turning to `C[S+]([O-])c1nc(-c2ccc(Br)cc2)cc(-c2ccccc2)c1C#N` (stereo not given) [6-(4-bromophenyl)-2-(methylsulfinyl)-4-phenylnicotinonitrile], the IC50 is 8.07 µM.

For `CCCNc1nc2c(c(=O)n(C)c(=O)n2C)n1Cc1cccc(C)c1` [1,3-Dimethyl-7-(3-methyl-benzyl)-8-propylamino-3,7-dihydro-purine-2,6-dione], the IC50 under setting [1] was determined as 21.5 µM.

For `COc1cccc2sc(Nc3nc(-c4ccccn4)cs3)nc12` [(4-methoxy-1,3-benzothiazol-2-yl)-[4-(2-pyridyl)thiazol-2-yl]amine], the IC50 is 3.89 µM.

Regarding `O=c1cc(-c2c(F)c(F)c(F)c(F)c2F)oc2c(F)c(F)c(F)c(F)c12` [5,6,7,8-tetrafluoro-2-(2,3,4,5,6-pentafluorophenyl)-1-benzopyran-4-one], the IC50 came to 4.81 µM. The IC50 values of the last two compounds are within 1.5-fold of each other.

In turn, `COc1cccc(N2CCN(c3ncnc4c3[nH]c3ccc(F)cc34)CC2C)c1` (stereo not given) [8-fluoranyl-4-[4-(3-methoxyphenyl)-3-methyl-piperazin-1-yl]-5H-pyrimido[5,4-b]indole] had an IC50 of 1.44 µM. This IC50 is about 3.3-fold lower than that of the compound before.

The compound `COc1ccccc1-c1nnc2sc(-c3ccc(N(C)C)cc3)nn12` [4-[3-(2-methoxyphenyl)-[1,2,4]triazolo[3,4-b][1,3,4]thiadiazol-6-yl]-N,N-dimethyl-aniline] showed an IC50 of 3.24 µM. Compared with the last compound, the IC50 is about 2.3-fold higher.

For `Cn1c(-c2ccco2)nc2cc3ccccc3cc21` [2-(2-furanyl)-3-methylbenzo[f]benzimidazole], the IC50 was above 3.67 µM.

Compound `O=C(O)CCCCCn1c(O)csc1=S` [6-(4-keto-2-thioxo-thiazolidin-3-yl)hexanoic acid] registered a half-maximal inhibitory concentration (IC50) above 99 µM.

Turning to `CCCN1C=CC(=C2C(=O)c3ccccc3C2=O)C=C1` [2-(1-propyl-4-pyridinylidene)indene-1,3-dione], the IC50 worked out at 0.431 µM.

`COc1cc(NS(=O)(=O)c2ccc(C)cc2)c2ncccc2c1` [SMR000071147] returned a half-inhibitory concentration (IC50) of 5.2 µM.

Consider `C[C@H]1CCCC=CC2C[C@H](O)CC2[C@H](O)C=CC(=O)O1` (stereo partly drawn) [(7S,12R,15S)-12,15-dihydroxy-7-methyl-8-oxabicyclo[11.3.0]hexadeca-2,10-dien-9-one], for which the IC50 is 8.95 µM.

`Cc1cccc2cc3c(nc12)S/C(=N\CC1CCCO1)N(Cc1ccco1)C3` (stereo not given) [3-(2-furanylmethyl)-9-methyl-N-(2-oxolanylmethyl)-4H-[1,3]thiazino[6,5-b]quinolin-2-imine] gave a half-maximal inhibitory concentration (IC50) under setting [1] of 63.7 µM.

`CCOC(=O)c1c(C)[nH]c(C(=O)C(C)OC(=O)c2cccc(OCc3c(C)noc3C)c2)c1C` (stereo not given) [MLS000054923]: under setting [1], the half-inhibitory concentration (IC50) came out at 10.6 µM. This IC50 is about 6-fold lower than that of the compound before.

`O=C(NC1=NCCS1)C1COc2ccccc2O1` (stereo not given) [MLS000056062] showed an IC50 of 4.65 µM.

Take `Cc1ccc(-c2nc(-c3ccccn3)no2)cc1` [5-(4-methylphenyl)-3-(2-pyridinyl)-1,2,4-oxadiazole]: the IC50 was 1.05 µM.

Turning to `O=C1c2ccccc2C(=O)C1c1ccc2ccccc2n1`, half-maximal inhibition (IC50) was put at 4.75 µM. This IC50 is about 4.5-fold higher than that of the compound before.

In the case of `c1c2c(cc3sc(N4CCCCC4)nc13)OCCO2` [2-(1-piperidinyl)-6,7-dihydro-[1,4]dioxino[2,3-f][1,3]benzothiazole], the IC50 was above 3.67 µM.

As to `CCOc1ccc(OCc2cccc(C(=O)N3CCOCC3)c2)cc1` [4-{3-[(4-ethoxyphenoxy)methyl]benzoyl}morpholine], the midpoint of inhibition, the IC50, lay at 4.35 µM.

`Cc1ccc(-c2cn3nc(C)c(C)nc3n2)cc1` [2,3-dimethyl-6-(4-methylphenyl)imidazo[1,2-b][1,2,4]triazine] displayed an IC50 of 4.13 µM.

On to `O=C(Nc1nc2ccccc2[nH]1)c1ccccc1F` [N-1,3-dihydro-2H-benzimidazol-2-ylidene-2-fluorobenzamide], for which the IC50 turned out to be 1.91 µM.
